The values that follow come from patent publication US20250289785A1, “INDOLE DERIVATIVE, METHOD FOR PREPARING SAME, AND USE THEREOF” (MITOIMMUNE THERAPEUTICS INC., priority 2021, published 2025).

Data set [1] in a line: Plasma and brain concentration after oral administration to ICR mice (HPLC-MS/MS). It is filed as in vivo. The note with it: ICR mouse, 10 mg/kg, 2 hours after administration. Here is the method:
[…] parameters can be represented as maximum concentration in plasma (Cmax), time taken until maximum concentration in plasma (Tmax), area under the plasma concentration-time curve (AUClast and AUCinf), and half-life (t1/2), and the like.
The compound of example 2 was orally administered to ICR mice at a dose of 10 mg/kg, and drug concentration in mouse plasma was measured using HPLC-MS/MS spectroscopy at 0.5, 1, 2, 4, 8 and 24 hours. The mouse brains were removed at 2 or 24 hours, and drug concentration in the brain was measured using HPLC-MS/MS spectroscopy. The area under the plasma concentration v. time curve (AUCinf) was measured to be […], and at 2 hours after administration drug concentration in plasma was 546 ng/mL and brain drug concentration was measured at 1043 ng/mL. […] Further, at 24 hours after administration, for Embodiment 2, drug concentration in plasma was measured to be 4.7 ng/mL and drug concentration in the brain was measured at 5.7 ng/mL. With the brain-plasma drug concentration ratio at 1.23, drug exposure in the brain was still high.
The Comparative Example compound was orally administered to ICR mice at a dose of 10 mg/kg, and drug concentration in mouse plasma was measured using HPLC-MS/MS spectroscopy at 0.5, 1, 2, 4, 8 and 24 hours. The mouse brains were removed at 2 or 24 hours, and drug concentration in the brain was measured using HPLC-MS/MS spectroscopy.

The next data set deals with H9C2 cells. The experiment in a line: Cell protection effect against t-BHP in heart cells (LDH release). It is filed as cell-based. The conditions noted are these: H9C2, t-BHP 40 μM, 2 hours. Here is the method: In order to identify the protective effect with regard to heart cells, H9C2 cells were divided into 96-well plates by 1.5×10^4, and cultured for 24 hours. The respective wells were treated with compounds of the examples 3× serial diluted to final concentrations of […], then cultured for 15 to 20 minutes. After treating with t-BHP with a final concentration of 40 μM, culturing was performed for 2 hours. In order to identify the protective effect of each compound, a Cytotoxicity LDH assay kit [Dojindo; CK12] was used to measure the degree of extracellular secretion of LDH. To describe briefly, at the time point 2-hour treatment of the cells with t-BHIP was completed, 100 μL each of the supernatant in which the cells were placed was collected and moved to a new 96-well plate. 100 μL/well of the assay buffer included in the kit (same amount as the sample) was added, followed by wrapping with foil and reacting for 30 minutes at room temperature. Observing the change in color of the sample, 50 μL/well of stop solution was added, then an iD3 spectrometer was used to measure absorbance at 490 nm and calculate the EC50 values. The EC50 of the compounds of the examples is preferably no more than 1.0 μM, and more preferably no more than 0.3 μM.
(Release of lactate dehydrogenase indicates damage to the cell membrane.)

`OCc1cc(NC2CCCC2)c2[nH]c(-c3ccccc3)cc2c1` [Comparative Example, reference compound]: in data set [1], the brain drug concentration amounted to 95.1 ng/mL and the “drug concentration in plasma” value came to 1122.4 ng/mL.

Usually EC50 stands for the concentration needed to bring the measured effect to its halfway point. A higher EC50 goes with lower potency in that assay. For `CC(C)OCc1cc(NC2CCCC2)c2[nH]c(-c3ccccc3)cc2c1` [Example 21, N-cyclopentyl-5-(isopropoxymethyl)-2-phenyl-1H-indol-7-amine], the concentration for a half-maximal effect (EC50) with H9C2 cells is at most 300 nM.

On to `COCc1cc(NC2CCN(C(C)=O)CC2)c2[nH]c(-c3ccccc3)cc2c1` [Example 6, 1-[4-[[5-(methoxymethyl)-2-phenyl-1H-indol-7-yl]amino]-1-piperidyl]ethanone], for which the EC50 in the data set with H9C2 cells is at most 300 nM.

Molecule `CC(C)(C)OCc1cc(N(C2CCCC2)C2CCCC2)c2[nH]c(-c3ccccc3)cc2c1` [Example 17, 5-(tert-butoxymethyl)-N,N-dicyclopentyl-2-phenyl-1H-indol-7-amine] showed an EC50 in the data set on H9C2 cells of at most 300 nM.

As to `COCc1cc(NC2CCN(C)CC2)c2[nH]c(-c3ccccc3)cc2c1` [Example 11, 5-(methoxymethyl)-N-(1-methyl-4-piperidyl)-2-phenyl-1H-indol-7-amine], the EC50 with H9C2 cells is at most 300 nM.

Turning to `COCc1cc(NCC2CCOCC2)c2[nH]c(-c3ccccc3)cc2c1` [Example 3, 5-(methoxymethyl)-2-phenyl-N-(tetrahydropyran-4-ylmethyl)-1H-indol-7-amine], the EC50 in the data set on H9C2 cells was at most 300 nM.

On to `CCOCc1cc(NC2CCCC2)c2[nH]c(-c3ccccc3)c(/C=C/C(=O)c3ccccc3)c2c1` [Example 34, (E)-3-(7-(cyclopentylamino)-5-(ethoxymethyl)-2-phenyl-1H-indol-3-yl)-1-phenylpropan-2-ene-1-one], for which the EC50 in the data set with H9C2 cells was at most 300 nM.

`CCOCCCc1cc(NC2CCOCC2)c2[nH]c(-c3ccccc3)cc2c1` [Example 51, 5-(3-ethoxypropyl)-2-phenyl-N-(tetrahydro-2H-pyran-4-yl)-1H-indol-7-amine]: the EC50 with H9C2 cells is at most 300 nM.
